The values that follow come from PubChem BioAssay AID624009 (Vanderbilt Specialized Chemistry Center, 2012).

Calls of active or inactive are those of the source. How the calls were made is not given here.

In the assay the target is Phospholipase D2 (Homo sapiens) + Phospholipase D2 (Homo sapiens) (UniProt O14939+O14939). Briefly: cellular PLD2 inhibitors, cell-based, HEK293 overexpressing PLD2, Lib32, assay 1B (AID 624009). The following applies: HEK293 cells overexpressing PLD2, cellular PLD activity; stronger effect = lower value; concentration not given here.
Chain of Phospholipase D2 (Homo sapiens) + Phospholipase D2 (Homo sapiens) (O14939 whole entry, looked up): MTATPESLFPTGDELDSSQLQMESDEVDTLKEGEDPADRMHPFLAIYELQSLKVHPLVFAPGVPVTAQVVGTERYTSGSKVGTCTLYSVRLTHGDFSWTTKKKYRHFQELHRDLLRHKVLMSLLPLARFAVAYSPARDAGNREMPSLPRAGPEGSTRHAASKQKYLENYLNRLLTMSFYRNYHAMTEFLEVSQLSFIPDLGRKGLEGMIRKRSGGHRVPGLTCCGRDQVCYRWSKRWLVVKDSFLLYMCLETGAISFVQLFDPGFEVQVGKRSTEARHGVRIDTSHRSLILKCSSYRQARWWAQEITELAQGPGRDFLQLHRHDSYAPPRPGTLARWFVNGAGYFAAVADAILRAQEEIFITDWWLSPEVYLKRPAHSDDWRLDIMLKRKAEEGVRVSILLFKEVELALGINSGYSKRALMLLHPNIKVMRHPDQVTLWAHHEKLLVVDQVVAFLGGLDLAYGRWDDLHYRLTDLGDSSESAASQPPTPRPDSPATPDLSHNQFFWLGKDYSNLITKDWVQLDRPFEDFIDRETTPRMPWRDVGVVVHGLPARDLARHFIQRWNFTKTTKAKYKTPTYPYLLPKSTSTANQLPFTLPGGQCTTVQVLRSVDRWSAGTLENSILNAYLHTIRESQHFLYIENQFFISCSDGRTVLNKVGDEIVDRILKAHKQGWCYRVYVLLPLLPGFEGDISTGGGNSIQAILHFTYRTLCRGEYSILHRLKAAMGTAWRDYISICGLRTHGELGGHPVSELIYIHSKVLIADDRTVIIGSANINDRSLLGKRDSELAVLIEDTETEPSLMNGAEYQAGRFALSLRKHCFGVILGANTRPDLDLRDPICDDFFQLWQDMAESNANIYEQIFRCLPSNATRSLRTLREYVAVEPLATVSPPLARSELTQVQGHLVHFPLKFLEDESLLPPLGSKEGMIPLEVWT
Chain of Phospholipase D2 (Homo sapiens) + Phospholipase D2 (Homo sapiens) (O14939 whole entry, looked up): as above
As to `O=C(NCCN1CCC2(CC1)C(=O)NCN2c1cccc(F)c1)c1ccccn1`, the remaining activity was 99.8% (inactive). The same measure for `O=C(NCCN1CCC2(CC1)C(=O)NCN2c1cccc(F)c1)c1ccc(Cl)cc1Cl`: 116% (inactive); for `O=C(c1ccc(F)cc1)N(CCN1CCC2(CC1)C(=O)NCN2c1cccc(F)c1)C(=O)c1ccc(F)cc1`: 102% (inactive). For `COc1cc(C(=O)NCCN2CCC3(CC2)C(=O)NCN3c2cccc(F)c2)cc(OC)c1OC`, the remaining activity is 46.7%.

For the compound `C[C@@H](CN1CCC2(CC1)C(=O)NCN2c1cccc(F)c1)NC(=O)c1cccc([N+](=O)[O-])c1`, the remaining activity was 74.9% (inactive). Then `C[C@@H](CN1CCC2(CC1)C(=O)NCN2c1cccc(F)c1)NC(=O)c1cccc(F)c1`, with 53.3%; and `C[C@@H](CN1CCC2(CC1)C(=O)NCN2c1cccc(F)c1)NC(=O)c1ccc(F)cc1F`, with 48.2%; and `O=C(Cc1ccc(F)cc1)NCCN1CCC2(CC1)C(=O)NCN2c1cccc(F)c1`, with 92.5% (inactive). The same measure for `C[C@@H](CN1CCC2(CC1)C(=O)NCN2c1cccc(F)c1)NC(=O)Cc1ccc(F)cc1`: 91.1% (inactive); for `O=C(NCCN1CCC2(CC1)C(=O)NCN2c1cccc(F)c1)c1ccc(F)cc1`: 59.4%. As for `O=C(NCCN1CCC2(CC1)C(=O)NCN2c1cccc(F)c1)c1ccc(Br)cc1`, the remaining activity is 39.2%. Then `C[C@@H](CN1CCC2(CC1)C(=O)NCN2c1cccc(F)c1)NC(=O)c1cccc2ccccc12`, with 81% (inactive); and `O=C(NCCN1CCC2(CC1)C(=O)NCN2c1cccc(F)c1)c1cccc(C(F)(F)F)c1`, with 107% (inactive). Then `C[C@@H](CN1CCC2(CC1)C(=O)NCN2c1cccc(F)c1)NC(=O)c1cccc(C(F)(F)F)c1`, with 68.8% (inactive); and `O=C(NCCN1CCC2(CC1)C(=O)NCN2c1cccc(F)c1)c1cccc([N+](=O)[O-])c1`, with 71% (inactive). The same measure for `O=C(NCCN1CCC2(CC1)C(=O)NCN2c1cccc(F)c1)c1ccc(F)cc1F`: 111% (inactive); for `C[C@@H](CN1CCC2(CC1)C(=O)NCN2c1cccc(F)c1)NC(=O)c1c(F)ccc(F)c1Cl`: 94.8% (inactive); for `C[C@@H](CN1CCC2(CC1)C(=O)NCN2c1cccc(F)c1)NC(=O)c1ccc(Br)cc1`: 26.6%.

As for `C[C@@H](CN1CCC2(CC1)C(=O)NCN2c1cccc(F)c1)NC(=O)c1c(F)cccc1F`, the remaining activity is 106% (inactive). Then `O=C(NCCN1CCC2(CC1)C(=O)NCN2c1cccc(F)c1)c1cccc2ccccc12`, with 96.3% (inactive); and `O=C(NCCN1CCC2(CC1)C(=O)NCN2c1cccc(F)c1)c1cccc2c1OCO2`, with 83.3% (inactive).

For `C[C@@H](CN1CCC2(CC1)C(=O)NCN2c1cccc(F)c1)NC(=O)c1ccccc1I`, the remaining activity was 79.4% (inactive). For `C[C@@H](CN1CCC2(CC1)C(=O)NCN2c1cccc(F)c1)NC(=O)c1ccc(F)cc1`, the remaining activity is 33.3%. The same measure for `C[C@@H](CN1CCC2(CC1)C(=O)NCN2c1cccc(F)c1)NC(=O)c1ccc(F)c(F)c1`: 22.8%.

Take `O=C(NCCN1CCC2(CC1)C(=O)NCN2c1cccc(F)c1)c1ccccc1I`: the remaining activity is 111% (inactive).

Consider `C[C@@H](CN1CCC2(CC1)C(=O)NCN2c1cccc(F)c1)NC(=O)c1ccc(Cl)cc1Cl`, for which the remaining activity is 81.5% (inactive). Then `COc1cc(C(=O)N[C@@H](C)CN2CCC3(CC2)C(=O)NCN3c2cccc(F)c2)cc(OC)c1OC`, with 34.8%; and `O=C(NCCN1CCC2(CC1)C(=O)NCN2c1cccc(F)c1)c1c(F)ccc(F)c1Cl`, with 85% (inactive).

Broadly, the remaining activity is the signal under treatment as a percentage of the control signal.
